From the supplement of paper PMC10627819

Legend:
Assay in all cases: Bliss interaction score (quartile over a dose matrix) (fitness difference); higher = more antagonism (negative = synergy)
B. subtilis 168 = system: B. subtilis 168
In short: (§1)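 The Bliss score takes observed fitness and subtracts the expected fitness, calculated as a product of single-drug fitness values. Those single-drug values were inferred from the combination data. Fitness is OD595 at entry into stationary phase divided by the plate's robust no-drug mean, capped at 1, and the score is summarised by quartiles across technical, biological and donor/recipient replicates.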

S. aureus DSM 20231 = system: S. aureus DSM 20231
In short: as §1

S. aureus Newman = system: S. aureus Newman
In short: as §1

S. pneumoniae D39V = system: S. pneumoniae D39V
In short: as §1
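Note: first quartile when negative (synergy) and third quartile when positive (antagonism).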

Structure (SMILES)	Bliss interaction score (B. subtilis 168)	Bliss interaction score (S. aureus DSM 20231)	Bliss interaction score (S. aureus Newman)	Bliss interaction score (S. pneumoniae D39V)	Bliss interaction score (B. subtilis 168; main component drawn)	Bliss interaction score (S. aureus DSM 20231; main component drawn)	Bliss interaction score (S. aureus Newman; main component drawn)	Bliss interaction score (S. pneumoniae D39V; main component drawn)
CC1=C(C(=O)O)N2C(=O)[C@@H](NC(=O)[C@H](N)c3ccccc3)[C@H]2SC1 [Cephalexin] + C[C@@H](O)[C@H]1C(=O)N2C(C(=O)O)=C(SCCNC=N)C[C@H]12 [Imipenem]	-0.104	0.0677	-0.0579	-0.237				
CC1=C(C(=O)O)N2C(=O)[C@@H](NC(=O)[C@H](N)c3ccccc3)[C@H]2SC1 [Cephalexin] + C[C@H]1COc2c(N3CCN(C)CC3)c(F)cc3c(=O)c(C(=O)O)cn1c23 [Levofloxacin]	-0.0126	-0.037	0.0499	-0.152				
CC1=C(C(=O)O)N2C(=O)[C@@H](NC(=O)[C@H](N)c3ccccc3)[C@H]2SC1 [Cephalexin] + C[C@H]1c2cccc(O)c2C(=O)C2=C(O)[C@]3(O)C(=O)C(C(N)=O)=C(O)[C@@H](N(C)C)[C@@H]3[C@@H](O)[C@@H]21 [Doxycycline]	-0.0302	0.0912	0.0562	0.183				
CC1=C(C(=O)O)N2C(=O)[C@@H](NC(=O)[C@H](N)c3ccccc3)[C@H]2SC1 [Cephalexin] + N[C@@H]1CONC1=O [CycloserineD]	-0.0367	0.0763	-0.0487	-0.117				
CC1=C(C(=O)O)N2C(=O)[C@@H](NC(=O)[C@H](N)c3ccccc3)[C@H]2SC1 [Cephalexin] + O=C(N[C@H](CO)[C@H](O)c1ccc([N+](=O)[O-])cc1)C(Cl)Cl [Chloramphenicol]	-0.069	0.0832	0.0789	0.113				
CC1=C(C(=O)O)N2C(=O)[C@@H](NC(=O)[C@H](N)c3ccccc3)[C@H]2SC1 [Cephalexin] + O=C(O)[C@H]1/C(=C/CO)O[C@@H]2CC(=O)N21 [Clavulanic]	-0.0461	0.0895	-0.0674	-0.14				
CC1=C(C(=O)O)N2C(=O)[C@@H](NC(=O)[C@H](N)c3ccccc3)[C@H]2SC1 [Cephalexin] + O=C(O)c1cn(C2CC2)c2cc(N3CCNCC3)c(F)cc2c1=O [Ciprofloxacin]	-0.084	0.0694	0.067	-0.138				
CC1=C(C(=O)O)N2C(=O)[C@@H](NC(=O)[C@H](N)c3ccccc3)[C@H]2SC1 [Cephalexin] + O=C(O[C@@H]1Cc2c(O)cc(O)cc2O[C@@H]1c1cc(O)c(O)c(O)c1)c1cc(O)c(O)c(O)c1 [EGCG]	-0.0668	-0.071	-0.115	0.0582				
CC1=C(C(=O)O)N2C(=O)[C@@H](NC(=O)[C@H](N)c3ccccc3)[C@H]2SC1 [Cephalexin] + Oc1cc(Cl)ccc1Oc1ccc(Cl)cc1Cl [Triclosan]	0.0637	0.0867	0.024	0.0582				
O=C(O)[C@H]1/C(=C/CO)O[C@@H]2CC(=O)N21 [Clavulanic] + CC1(C)S[C@@H]2[C@H](NC(=O)Cc3ccccc3)C(=O)N2[C@H]1C(=O)O [PenicillinG]	-0.351	-0.147	-0.128	0.0529				
O=C(O)[C@H]1/C(=C/CO)O[C@@H]2CC(=O)N21 [Clavulanic] + CC1=C\[C@@H](O)CC(=O)Cc2nc(co2)C(=O)N2CCC=C2C(=O)O[C@H](C(C)C)[C@H](C)/C=C/C(=O)NC\C=C\1 [Virginiamycin M1]	0.0376	0.0872	-0.0599	0.0495				
O=C(O)[C@H]1/C(=C/CO)O[C@@H]2CC(=O)N21 [Clavulanic] + CC(=O)NC[C@H]1CN(c2ccc(N3CCOCC3)c(F)c2)C(=O)O1 [Linezolid]	0.0747	-0.196	0.242	-0.1				
O=C(O)[C@H]1/C(=C/CO)O[C@@H]2CC(=O)N21 [Clavulanic] + CC(=O)O[C@H]1C[C@@]2(C)[C@@H](C[C@@H](O)[C@H]3[C@@]4(C)CC[C@@H](O)[C@@H](C)[C@@H]4CC[C@@]32C)/C1=C(\CCC=C(C)C)C(=O)O [Fusidic acid]	-0.0604	-0.265	0.209	-0.0441				
O=C(O)[C@H]1/C(=C/CO)O[C@@H]2CC(=O)N21 [Clavulanic] + CC(C1CCC(C(O1)OC2C(CC(C(C2O)OC3C(C(C(CO3)(C)O)NC)O)N)N)N)NC [Gentamicin]					0.105	-0.273	0.288	0.0396
O=C(O)[C@H]1/C(=C/CO)O[C@@H]2CC(=O)N21 [Clavulanic] + CCC(C)C1C(=O)NC(=C)C(=O)NC(C(=O)NC(CSCC(C(=O)N1)NC(=O)/C(=C/C)/NC(=O)C(C(C)CC)N)C(=O)NC2C(SCC(NC(=O)CNC(=O)C3CCCN3C2=O)C(=O)NC(CCCCN)C(=O)NC4C(SCC(NC(=O)CNC(=O)C(NC(=O)C(NC(=O)C(NC(=O)CNC4=O)C)CC(C)C)CCSC)C(=O)NC(CC(=O)N)C(=O)NC(CCSC)C(=O)NC(CCCCN)C(=O)NC5C(SCC6C(=O)NC(C(=O)NC(CSC(C(C(=O)N6)NC(=O)C(NC5=O)C)C)C(=O)NC(CO)C(=O)NC(C(C)CC)C(=O)NC(CC7=CN=CN7)C(=O)NC(C(C)C)C(=O)NC(=C)C(=O)NC(CCCCN)C(=O)O)CC8=CN=CN8)C)C)C)CC(C)C [Nisin]					-0.0543	0.105	0.255	-0.0543
O=C(O)[C@H]1/C(=C/CO)O[C@@H]2CC(=O)N21 [Clavulanic] + CCCCCCCCCC(=O)N[C@@H]1[C@H]([C@@H]([C@H](O[C@H]1OC2=C3C=C4C=C2OC5=C(C=C(C=C5)[C@H]([C@H]6C(=O)N[C@@H](C7=C(C(=CC(=C7)O)OC8[C@H]([C@H]([C@@H]([C@H](O8)CO)O)O)O)C9=C(C=CC(=C9)[C@H](C(=O)N6)NC(=O)[C@@H]4NC(=O)[C@@H]1C2=CC(=CC(=C2)OC2=C(C=CC(=C2)[C@H](C(=O)N[C@H](CC2=CC(=C(O3)C=C2)Cl)C(=O)N1)N)O)O)O)C(=O)O)O[C@H]1[C@@H]([C@H]([C@@H]([C@H](O1)CO)O)O)NC(=O)C)Cl)CO)O)O [Teicoplanin]					-0.178	0.119	-0.059	-0.0601
O=C(O)[C@H]1/C(=C/CO)O[C@@H]2CC(=O)N21 [Clavulanic] + CCC[C@@H]1C[C@@H](C(=O)N[C@@H]([C@H]2O[C@H](SC)[C@H](O)[C@@H](O)[C@H]2O)[C@@H](C)O)N(C)C1 [Lincomycin]	-0.0568	-0.194	0.132	0.0627				

Structure (SMILES)	Bliss interaction score (B. subtilis 168)	Bliss interaction score (S. aureus DSM 20231)	Bliss interaction score (S. aureus Newman)	Bliss interaction score (S. pneumoniae D39V)	Bliss interaction score (B. subtilis 168; main component drawn)	Bliss interaction score (S. aureus DSM 20231; main component drawn)	Bliss interaction score (S. aureus Newman; main component drawn)	Bliss interaction score (S. pneumoniae D39V; main component drawn)
O=C(O)[C@H]1/C(=C/CO)O[C@@H]2CC(=O)N21 [Clavulanic] + CCC[C@@H]1C[C@@H](C(=O)N[C@@H]([C@H]2O[C@H](SC)[C@H](O)[C@@H](O)[C@H]2O)[C@H](C)Cl)N(C)C1 [Clindamycin]	-0.0975	-0.148	0.188	-0.0802				
O=C(O)[C@H]1/C(=C/CO)O[C@@H]2CC(=O)N21 [Clavulanic] + CCN(CC)CCOC(=O)c1ccc(N)cc1 [Procaine]	-0.0363	0.0977	-0.0729	0.0863				
O=C(O)[C@H]1/C(=C/CO)O[C@@H]2CC(=O)N21 [Clavulanic] + CC[C@H]1OC(=O)[C@H](C)C(=O)[C@H](C)[C@@H](O[C@@H]2O[C@H](C)C[C@H](N(C)C)[C@H]2O)[C@](C)(OC)C[C@@H](C)C(=O)[C@H](C)[C@H]2N(CCCCn3cnc(-c4cccnc4)c3)C(=O)O[C@]12C [Telithromycin]	0.0437	-0.0742	0.122	-0.0431				
O=C(O)[C@H]1/C(=C/CO)O[C@@H]2CC(=O)N21 [Clavulanic] + CC[C@H]1OC(=O)[C@H](C)[C@@H](O[C@H]2C[C@@](C)(OC)[C@@H](O)[C@H](C)O2)[C@H](C)[C@@H](O[C@@H]2O[C@H](C)C[C@H](N(C)C)[C@H]2O)[C@](C)(O)C[C@@H](C)C(=O)[C@H](C)[C@@H](O)[C@]1(C)O [Erythromycin]	0.0508	-0.151	0.237	-0.0371				
O=C(O)[C@H]1/C(=C/CO)O[C@@H]2CC(=O)N21 [Clavulanic] + CN1C2=CC=CC=C2N=C3C1=CC=CC3=O [Pyocyanin]	0.0338	-0.0632	0.0849	0.0705				
O=C(O)[C@H]1/C(=C/CO)O[C@@H]2CC(=O)N21 [Clavulanic] + CN(C)C(=O)C(CCN1CCC(O)(c2ccc(Cl)cc2)CC1)(c1ccccc1)c1ccccc1 [Loperamide]	0.389	-0.361	0.209	0.0637				
O=C(O)[C@H]1/C(=C/CO)O[C@@H]2CC(=O)N21 [Clavulanic] + CN(C)[C@@H]1C(O)=C(C(N)=O)C(=O)[C@@]2(O)C(O)=C3C(=O)c4c(O)ccc(Cl)c4[C@@](C)(O)[C@H]3C[C@@H]12 [Clortetracycline]	0.0785	-0.24	0.161	-0.0427				
O=C(O)[C@H]1/C(=C/CO)O[C@@H]2CC(=O)N21 [Clavulanic] + CN(C)c1cc(NC(=O)CNC(C)(C)C)c(O)c2c1C[C@H]1C[C@H]3[C@H](N(C)C)C(O)=C(C(N)=O)C(=O)[C@@]3(O)C(O)=C1C2=O [Tigecycline]	0.0342	0.0703	-0.0659	0.0386				
O=C(O)[C@H]1/C(=C/CO)O[C@@H]2CC(=O)N21 [Clavulanic] + CN(N=O)C(=O)N[C@@H](C=O)[C@@H](O)[C@H](O)[C@H](O)CO [Streptozotocin]	-0.0541	-0.0853	0.197	0.059				
O=C(O)[C@H]1/C(=C/CO)O[C@@H]2CC(=O)N21 [Clavulanic] + CN[C@@H]1[C@H](O)[C@H](NC)[C@H]2O[C@@]3(O)C(=O)C[C@@H](C)O[C@H]3O[C@@H]2[C@H]1O [Spectinomycin]	0.0479	0.137	0.104	-0.0465				
O=C(O)[C@H]1/C(=C/CO)O[C@@H]2CC(=O)N21 [Clavulanic] + CN[C@H](CC(C)C)C(=O)N[C@H]1C(=O)N[C@@H](CC(N)=O)C(=O)N[C@H]2C(=O)N[C@H]3C(=O)N[C@H](C(=O)N[C@H](C(=O)O)c4cc(O)cc(O)c4-c4cc3ccc4O)[C@H](O)c3ccc(c(Cl)c3)Oc3cc2cc(c3O[C@@H]2O[C@H](CO)[C@@H](O)[C@H](O)[C@H]2O[C@H]2C[C@](C)(N)[C@H](O)[C@H](C)O2)Oc2ccc(cc2Cl)[C@H]1O [Vancomycin]	-0.136	0.0812	-0.0409	-0.0704				
O=C(O)[C@H]1/C(=C/CO)O[C@@H]2CC(=O)N21 [Clavulanic] + CN[C@H](CC(C)C)C(=O)N[C@H]1C(=O)N[C@@H](CC(N)=O)C(=O)N[C@H]2C(=O)N[C@H]3C(=O)N[C@H](C(=O)N[C@H](C(=O)O)c4cc(O)cc(O)c4-c4cc3ccc4O)[C@H](O[C@H]3C[C@](C)(N)[C@@H](O)[C@H](C)O3)c3ccc(c(Cl)c3)Oc3cc2cc(c3O[C@@H]2O[C@H](CO)[C@@H](O)[C@H](O)[C@H]2O[C@H]2C[C@](C)(NCc3ccc(-c4ccc(Cl)cc4)cc3)[C@@H](O)[C@H](C)O2)Oc2ccc(cc2Cl)[C@H]1O [Oritavancin]	-0.0388	0.0726	0.197	0.0545				
O=C(O)[C@H]1/C(=C/CO)O[C@@H]2CC(=O)N21 [Clavulanic] + CO[C@@H]1[C@@H](OC(N)=O)[C@@H](O)[C@H](Oc2ccc3c(O)c(NC(=O)c4ccc(O)c(CC=C(C)C)c4)c(=O)oc3c2C)OC1(C)C [Novobiocin]	0.0384	0.116	0.177	-0.0784				
O=C(O)[C@H]1/C(=C/CO)O[C@@H]2CC(=O)N21 [Clavulanic] + CO[C@@]12[C@H](COC(N)=O)C3=C(C(=O)C(C)=C(N)C3=O)N1C[C@@H]1N[C@@H]12 [MitomycinC]	-0.113	-0.0996	0.129	-0.0718				
O=C(O)[C@H]1/C(=C/CO)O[C@@H]2CC(=O)N21 [Clavulanic] + CO[C@H]1/C=C/O[C@@]2(C)Oc3c(C)c(O)c4c(O)c(c(/C=N/N5CCN(C)CC5)c(O)c4c3C2=O)NC(=O)/C(C)=C\C=C\[C@H](C)[C@H](O)[C@@H](C)[C@@H](O)[C@@H](C)[C@H](OC(C)=O)[C@@H]1C [Rifampicin]	0.0612	0.112	-0.0368	-0.0766				
O=C(O)[C@H]1/C(=C/CO)O[C@@H]2CC(=O)N21 [Clavulanic] + COc1c(N2C[C@@H]3CCCN[C@@H]3C2)c(F)cc2c(=O)c(C(=O)O)cn(C3CC3)c12 [Moxifloxacin]	-0.0241	-0.0739	0.218	0.062				
